Laboratory results from ChEMBL document CHEMBL6096690, “Synthesis and Biological Evaluation of Peripheral HTR2A Antagonists for Colorectal Cancer” (J Med Chem, 2025).

Legend:
[1] = target: 5-hydroxytryptamine receptor 2A (Homo sapiens, UniProt P28223); assay: Antagonist activity at 5HTR2A (unknown origin) assessed as inhibition of 5-HTR2A
hERG (KCNH2) = hERG (KCNH2) (Homo sapiens, UniProt Q12809); assay: Inhibition of hERG at 10 uM relative to control; type: toxicity
Chain of hERG (KCNH2) (Q12809 whole entry): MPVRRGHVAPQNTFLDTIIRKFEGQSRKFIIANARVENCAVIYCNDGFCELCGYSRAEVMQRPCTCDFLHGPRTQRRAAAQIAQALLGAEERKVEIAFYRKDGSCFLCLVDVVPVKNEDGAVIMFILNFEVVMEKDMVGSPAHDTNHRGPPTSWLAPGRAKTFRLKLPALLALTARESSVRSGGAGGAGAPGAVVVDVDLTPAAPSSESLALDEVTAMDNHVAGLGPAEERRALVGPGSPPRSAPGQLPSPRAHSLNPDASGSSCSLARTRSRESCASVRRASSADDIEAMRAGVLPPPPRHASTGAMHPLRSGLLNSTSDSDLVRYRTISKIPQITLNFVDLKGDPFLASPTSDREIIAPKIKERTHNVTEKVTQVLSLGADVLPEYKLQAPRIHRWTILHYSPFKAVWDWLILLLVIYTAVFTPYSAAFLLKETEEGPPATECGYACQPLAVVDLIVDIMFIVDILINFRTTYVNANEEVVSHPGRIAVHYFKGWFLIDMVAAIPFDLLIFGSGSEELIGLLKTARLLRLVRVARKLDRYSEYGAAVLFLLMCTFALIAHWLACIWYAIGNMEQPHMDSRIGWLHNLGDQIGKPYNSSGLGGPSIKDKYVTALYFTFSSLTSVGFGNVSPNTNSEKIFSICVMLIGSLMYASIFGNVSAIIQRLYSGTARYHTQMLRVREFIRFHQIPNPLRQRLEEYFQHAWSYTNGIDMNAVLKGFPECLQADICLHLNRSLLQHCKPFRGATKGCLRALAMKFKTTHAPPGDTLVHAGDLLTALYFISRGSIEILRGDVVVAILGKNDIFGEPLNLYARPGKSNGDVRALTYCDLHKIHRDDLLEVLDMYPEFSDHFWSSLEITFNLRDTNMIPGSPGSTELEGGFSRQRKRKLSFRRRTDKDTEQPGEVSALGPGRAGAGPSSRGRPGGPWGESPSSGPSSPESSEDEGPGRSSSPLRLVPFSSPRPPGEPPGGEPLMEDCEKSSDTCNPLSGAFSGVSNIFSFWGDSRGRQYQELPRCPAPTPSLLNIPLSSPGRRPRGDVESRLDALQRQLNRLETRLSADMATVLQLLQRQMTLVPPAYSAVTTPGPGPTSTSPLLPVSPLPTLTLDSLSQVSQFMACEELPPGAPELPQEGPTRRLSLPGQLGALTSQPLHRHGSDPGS

Chain of 5-hydroxytryptamine receptor 2A (P28223 whole entry): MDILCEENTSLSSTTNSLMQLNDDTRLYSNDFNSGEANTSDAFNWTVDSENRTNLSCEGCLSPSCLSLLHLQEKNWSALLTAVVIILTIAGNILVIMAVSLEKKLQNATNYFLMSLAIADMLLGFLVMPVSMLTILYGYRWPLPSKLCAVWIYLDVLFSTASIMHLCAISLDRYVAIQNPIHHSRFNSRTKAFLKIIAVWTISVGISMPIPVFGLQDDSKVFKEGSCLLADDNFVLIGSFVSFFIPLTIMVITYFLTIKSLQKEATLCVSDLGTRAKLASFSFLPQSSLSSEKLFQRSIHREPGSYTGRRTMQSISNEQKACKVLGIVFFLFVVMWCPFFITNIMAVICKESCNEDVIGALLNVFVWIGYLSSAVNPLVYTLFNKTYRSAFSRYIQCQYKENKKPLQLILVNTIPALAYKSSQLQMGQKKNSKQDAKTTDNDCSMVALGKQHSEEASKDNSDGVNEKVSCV

| Compound | IC50 [1] [nM] | inhibition at 10 µM (hERG (KCNH2)) [%] |
| --- | --- | --- |
| O=C(NCc1ccc(OCC(O)CN2CCN(c3cccc(Cl)c3Cl)CC2)cc1)N(Cc1ccc(F)cc1)C1CCNCC1 (stereo not drawn) | 91.8 |  |
| O=C(NCc1ccc(OCC(O)CN2CCN(c3noc4cc(F)ccc34)CC2)cc1)N(Cc1ccc(F)cc1F)C1CCNCC1 (stereo not drawn) | 46.5 | 87.7 |
